“And” between values parts separate entries of the source, which are not always exact repeats. Equal values may be shown once. Read-outs that look alike come from different tables or passages of the source.
Tests used:
EGFP-SD [1] = target: EGFP-SD (Aequorea victoria, UniProt P42212, F64L/H231L/S65T); type: cell-based, mouse; settings: stable; for DC50: read-out: DC50, EGFP-SD
[2] = target: endogenous PD-1 tagged with SD (Mus musculus, UniProt Q02242+Q8C7D2); experiment: Endogenous PD-1-SD on concanavalin A-stimulated spleen T cells, flow cytometry; type: cell-based; settings: for percentage of activated T cells characterized by FSC high: Con A-stimulated splenocytes; for PD-1 on CD8+ and CD4+ cells: Con A, 24 h after 1 μM POM or 0.1–1 μM IBR
endogenous PD-1 tagged with SD, sequence (Q02242 with tags, fused parts or gaps): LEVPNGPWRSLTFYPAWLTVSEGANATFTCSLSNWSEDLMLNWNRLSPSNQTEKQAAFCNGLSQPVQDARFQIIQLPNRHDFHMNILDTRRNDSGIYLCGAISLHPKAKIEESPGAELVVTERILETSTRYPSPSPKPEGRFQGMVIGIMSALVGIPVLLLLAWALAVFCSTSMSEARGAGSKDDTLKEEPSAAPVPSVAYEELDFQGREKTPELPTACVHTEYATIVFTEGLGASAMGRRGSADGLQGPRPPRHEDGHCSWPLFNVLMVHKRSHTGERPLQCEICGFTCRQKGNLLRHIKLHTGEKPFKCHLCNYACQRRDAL
endogenous PD-1 tagged with SD, sequence (Q8C7D2 whole entry): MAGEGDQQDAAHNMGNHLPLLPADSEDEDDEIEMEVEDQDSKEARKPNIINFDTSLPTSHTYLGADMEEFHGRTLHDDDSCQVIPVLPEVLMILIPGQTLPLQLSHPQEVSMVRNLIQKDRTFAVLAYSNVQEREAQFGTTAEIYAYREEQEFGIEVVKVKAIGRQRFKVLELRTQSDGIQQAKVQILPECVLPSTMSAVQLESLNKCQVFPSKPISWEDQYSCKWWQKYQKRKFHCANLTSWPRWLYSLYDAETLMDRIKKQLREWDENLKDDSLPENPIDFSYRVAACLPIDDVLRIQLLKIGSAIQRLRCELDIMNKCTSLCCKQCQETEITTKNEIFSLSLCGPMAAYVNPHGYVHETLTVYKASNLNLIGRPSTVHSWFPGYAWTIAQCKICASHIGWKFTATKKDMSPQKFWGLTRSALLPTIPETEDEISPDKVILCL
endogenous PD-1 tagged with SD, sequence (Q3U1J4 whole entry partner): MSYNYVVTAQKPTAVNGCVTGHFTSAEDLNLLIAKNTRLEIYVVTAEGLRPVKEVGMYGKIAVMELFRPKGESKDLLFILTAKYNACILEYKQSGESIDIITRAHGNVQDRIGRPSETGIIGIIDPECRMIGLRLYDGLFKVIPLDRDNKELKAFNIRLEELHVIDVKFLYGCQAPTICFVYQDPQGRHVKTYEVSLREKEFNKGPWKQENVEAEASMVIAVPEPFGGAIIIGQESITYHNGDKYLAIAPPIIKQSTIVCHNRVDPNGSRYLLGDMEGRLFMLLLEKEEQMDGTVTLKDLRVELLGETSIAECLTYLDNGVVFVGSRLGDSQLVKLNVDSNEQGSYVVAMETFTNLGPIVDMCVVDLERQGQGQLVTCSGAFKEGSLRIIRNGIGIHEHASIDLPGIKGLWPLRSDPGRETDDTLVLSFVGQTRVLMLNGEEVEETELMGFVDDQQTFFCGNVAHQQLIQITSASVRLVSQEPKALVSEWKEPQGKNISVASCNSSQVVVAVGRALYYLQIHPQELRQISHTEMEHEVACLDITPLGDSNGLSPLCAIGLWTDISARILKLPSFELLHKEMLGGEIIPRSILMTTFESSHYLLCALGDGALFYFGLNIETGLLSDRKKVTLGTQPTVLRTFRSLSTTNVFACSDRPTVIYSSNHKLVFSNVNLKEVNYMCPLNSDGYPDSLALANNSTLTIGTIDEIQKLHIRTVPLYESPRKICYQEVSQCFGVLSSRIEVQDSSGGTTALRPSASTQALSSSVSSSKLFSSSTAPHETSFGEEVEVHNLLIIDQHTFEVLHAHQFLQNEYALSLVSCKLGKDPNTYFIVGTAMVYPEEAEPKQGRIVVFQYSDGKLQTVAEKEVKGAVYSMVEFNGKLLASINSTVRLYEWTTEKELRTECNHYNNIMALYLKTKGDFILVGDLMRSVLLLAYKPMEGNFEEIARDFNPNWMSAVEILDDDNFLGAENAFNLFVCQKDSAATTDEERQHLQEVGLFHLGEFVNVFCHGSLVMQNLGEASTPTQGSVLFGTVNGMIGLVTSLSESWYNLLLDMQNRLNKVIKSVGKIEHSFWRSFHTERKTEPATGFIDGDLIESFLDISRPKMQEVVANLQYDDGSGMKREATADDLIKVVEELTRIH
Experimental: The dotted lines show an isotype control without IBR. […] The dotted lines show an isotype control without IBR. […] The black lines show isotype control without IBR. […] Red lines show the boundary between positive and negative. […] (B–J) IBR or solvent (−) was added to cultured splenocytes (B–G) or mESCs (H–J). […] The concentration is 0.1 μM in the rightmost bar in each group, and the left neighbor is a step dilution of one-tenth. Intensities of anti-PD-1-FITC on CD4^+ and CD8^+ T cells were measured by flow cytometry, and the geometric means of fluorescence intensities (MFI) were calculated. The MFI of the isotype control of anti-PD-1-FITC was subtracted from each MFI of anti-PD-1-FITC. The dots indicate the results of the experiment for each of the three samples from different individuals.
Pdcd1^SD/SD/Crbn^I391V/I391V spleen-derived T cells were stimulated in vitro with concanavalin A (Con A) followed by treatment with thalidomide analogs to examine PD-1 expression (Figures 6B–6D and S6A–S6C).
To determine whether the same phenomenon occurs in non-T cells, exogenous PD-1 degradation was examined in mESCs transfected with PD-1-SD expression vectors (Figures 6H–6J and S6E). […] We hypothesized that the degradation efficiency of membrane-localized proteins might be reduced in mouse-type CRBNs. Therefore, we expressed EGFP-SDs with membrane-localized peptides attached to their N-termini in mESCs and added IBR. The degradation efficiency of EGFP-SD with membrane-localization peptide[32] […] Therefore, Pdcd1^SD/SD/Crbn^I391V/I391V mice were used for further analyses.
Splenocytes were harvested after the mice were euthanized. Splenocytes were isolated in RPMI 1640 medium and collected using a 70 μm filter. After treatment with ACT solution to remove red blood cells, splenocyte culture was performed at a density of 2 × 10^6 cells/mL in RPMI 1640 with 10% FBS, Glutamax and penicillin-streptomycin and incubated at 37°C in a 5% CO2 containing atmosphere. To activate T cells, 0.5 μg/mL concanavalin A was added to the medium for 3 days to activate T cells.

EGFP-IKZF = EGFP-IKZF (UniProt P42212+Q8C7D2, F64L/H231L/INS1V/S65T); type: cell-based, mouse; settings: read-out: DC50, EGFP-IKZF, stable
EGFP-IKZF, sequence (Q8C7D2 whole entry, looked up, stated change not applied, other chains not shown): as the sequence (Q8C7D2 whole entry) above

[3] = target: PD-1 tagged with SD in the brain (Mus musculus, UniProt Q02242+Q8C7D2); experiment: PD-1 expression in brain, western blotting; type: in vivo; settings: Pdcd1SD/SD/CrbnI391V/I391V mice
PD-1 tagged with SD in the brain, sequence (Q02242 with tags, fused parts or gaps): as the sequence (Q02242 with tags, fused parts or gaps) above
PD-1 tagged with SD in the brain, sequence (Q8C7D2 whole entry): as the sequence (Q8C7D2 whole entry) above
PD-1 tagged with SD in the brain, sequence (Q3U1J4 whole entry partner): as the sequence (Q3U1J4 whole entry partner) above
Experimental: Although the growth of GL-261 in the brain was inhibited, it is likely that the BBB was destroyed in cancer growth experiments in which GL-261 was transplanted.[34] Therefore, we conducted an experiment in which IBR was administered without the transplantation of brain tumor cell lines as a model for protein degradation experiments in the brain under normal conditions. […] Thus, this degron system can be used in the brain.
Brain tissue was collected after the mice were deeply anesthetized and perfused with PBS to remove blood. They were immediately frozen in liquid nitrogen and homogenized in Nervous Tissue Protein Extraction buffer (TCI, Tokyo, Japan). After centrifuging the lysate at 20,000 g for 10 min at 4°C, heated at 98°C for 3 min with NuPAGE Sample Reducing Agent (Thermo Fisher Scientific) and NuPAGE LDS Sample buffer (Thermo Fisher Scientific), the supernatant was used for SDS-PAGE. SDS-PAGE was performed using a 5–12% polyacrylamide gel (FUJIFILM Wako) and NuPAGE MOPS SDS running buffer (Thermo Fisher Scientific) for 1 h, 120 V. One microgram of protein was loaded in each lane. […] After three washes with PBST, the secondary antibodies were detected using ImmunoStar (FUJIFILM Wako) and LAS 3000 (FUJIFILM). […]

[4] = tested on: mouse PD-1-mCherry-super degron (SD) tag; experiment: Degradation of SD-tagged mouse PD-1-mCherry in Jurkat cells, flow cytometry 24 h; type: cell-based, human; settings: for Bottom, mCherry (mC): no reagent = 1; for Bottom, PD-1 (FITC): surface PD-1, no reagent = 1
Source text: To identify a tag that could efficiently knock down mouse PD-1, we connected various degron tags to the C-terminus of PD-1, including IKZF1/3, Sall4, ZFP91, and SD, and generated Jurkat human T cell lymphoma cell lines that stably expressed the mouse PD-1-degron tag (Figure 1A). […] Therefore, a human cell line was used because it was thought that mouse CRBN would not degrade SD by thalidomide analogs. […] We also analyzed the degradation of total proteins using mCherry.
(C and D) The amount was standardized with the sample to which no reagent was added as 1. Concentrations of reagents were 0 (−), 5, 10, and 20 μM for IKZF minimal, IKZF full-length, and Sall4 tags and 0 (−), 0.5, 5 μM for SD tag. The dots indicate the results of the experiment for each of samples.

EGFP-SD [5] = experiment: Degradation of stably expressed EGFP-SD in rat ESCs
[6] = CrbnI391V/I391V mESCs, Figure 5E
[7] = Pdcd1SD/SD/CrbnI391V/I391V T cells

Compound | Bottom, EGFP-SD (EGFP-SD [1]; B6J-S1 mESCs, Figure 5D) | LogDC50, EGFP-SD (EGFP-SD [1]; B6J-S1 mESCs, Figure 5D) [μM] | Bottom, EGFP-SD (EGFP-SD [1]; [6]) | LogDC50, EGFP-SD (EGFP-SD [1]; [6]) [μM] | DC50 (EGFP-SD [1]; B6J-S1 mESCs, Figure 5D) [nM] | DC50 (EGFP-SD [1]; [6]) [nM] | percentage of activated T cells characterized by FSC high [2] | PD-1 on CD8+ and CD4+ cells [2, 7] | DC50 (EGFP-IKZF; [6]) [nM] | concentration showing the same effect on PD-1-SD [4] [µM] | Bottom, mCherry (mC) [4] | Bottom, PD-1 (FITC) [4] | other results
O=C1CC[C@H](N2Cc3c(OCc4ccc(CN5CCOCC5)cc4)cccc3C2=O)C(=O)N1 [IBR, iberdomide] | 0.02363 | -3.579 | 0.04851 | -4.174 | 0.264 | 0.067 | not affected | barely observed | 0.639 | 0.5 | 0.2415 | 0.1258 | Bottom, EGFP-SD (EGFP-SD [1]; B6J-S1 mESCs, Figure 5B): 0.05422; LogDC50, EGFP-SD (EGFP-SD [1]; B6J-S1 mESCs, Figure 5B): -3.152 μM; DC50 (EGFP-SD [1]; B6J-S1 mESCs, Figure 5B): 0.704 nM; PD-1 degradation ([2]; Pdcd1SD/SD/Crbn+/+ T cells): barely degraded; PD-1 removal ([2]; Pdcd1SD/SD/CrbnI391V/I391V T cells, 10^−2 μM and 10^−3 μM IBR): mostly removed; DC50 (EGFP-IKZF; B6J-S1 mESCs, Figure 5B): 29.1 nM; PD-1 expression in the brain ([3]; IBR 10 mg/kg oral, 24 h): no changes in PD-1 expression in the brain; DC50 (EGFP-SD [5]; read-out: DC50, EGFP-SD, stable): 0.14 nM; Bottom, EGFP-SD (EGFP-SD [5]; stable): 0.0497; bottom vs top, EGFP-SD (EGFP-SD [5]; stable, IBR up to 1 μM): 0.083
Nc1cccc2c1C(=O)N(C1CCC(=O)NC1=O)C2=O (stereo not shown) [POM, pomalidomide] | 0.01974 | -2.853 | 0.06229 | -2.993 | 1.4 | 1.02 | not affected | barely observed | 5.11 | 5 | 0.2421 | 0.11 and 0.1083 | PD-1 amount in the brain vs vehicle ([3]; 20 mg/kg POM oral, after 24 h): reduced to half the amount; DC50 ([4]; read-out: DC50, PD-1 (FITC), surface PD-1): 148 nM; DC50 ([4]; read-out: DC50, mCherry (mC), mCherry): 234 nM

Source: article PMC12274739, “Differential substrate degradation by super-degron: EGFP in wild-type mouse cells, PD-1 requires CRBN humanization” (iScience, 2025)
